Experiments:
[1] = test system: Mus musculus; test: Antiinflammatory activity in mouse assessed as reduction in PMA-induced ear edema at 0.1 mg/ear administered topically measured after 24 hrs relative to control; assay type: functional; set-up: scale not given: the % may be the effect or the level left
[2] = test system: Mus musculus; test: Toxicity in mouse at 0.1 mg/ear administered topically; assay type: organism-based; details: in vivo, topical_or_ocular
[3] = test system: Mus musculus; test: Antiinflammatory activity in mouse assessed as reduction in PMA-induced ear edema at 3 mg/ear administered topically relative to control; assay type: functional; set-up: scale not given: the % may be the effect or the level left

Which results are given for `C/C(=C\C=C\C(C)(C)O)C(C)C`?
Activity [1]: 80%; Activity [2]: Non-toxic

What does the source list for `C/C(=C\C=C\C(C)(C)O)C1CCCCC1`?
Activity [1]: 62%; Activity [2]: Non-toxic

How did the Activity [1] turn out when `C/C(=C\C=C\C(C)(C)O)c1ccccc1` was run?
Its Activity is 0%.

What about the Activity [2] of the same molecule?
Its Activity is “Non-toxic”.

How did the Activity [1] turn out when `CC1=CCC(/C(C)=C/C=C/C(C)(C)O)CC1` (stereo not given) was run?
Its Activity is 58%.

And the Activity [2]?
Its Activity is “Non-toxic”.

With `C/C(=C\C=C\C(C)(C)O)C1CC[C@@H](C)C[C@H]1O` (stereo not given in full) as the molecule, how does the Activity [1] read?
Its Activity is 71%.

And the Activity [2]?
The Activity was “Non-toxic”.

Which results are given for `C/C(=C\C=C\C(C)(C)O)C1CCc2ccccc2C1` (stereo not given)?
Activity [1]: 58%; Activity [2]: Non-toxic

Which Activity [1] does the source give for `C=C[C@@]1(C)CC[C@H](/C(C)=C/C=C/C(C)(C)O)C[C@@H]1C(=C)C` [FUSCOL] here?
Its Activity is 46%.

And the Activity [2]?
Its Activity is “Non-toxic”.

How did the Activity [3] turn out when `COc1ccc2c(c1)c(CC(=O)O)c(C)n2C(=O)c1ccc(Cl)cc1` [INDOMETHACIN] was run?
Its Activity is 51%.
